Results on eleven compounds are retold here after ChEMBL document CHEMBL1201862, “PubChem BioAssay data set” (2004).

Each structure is given as a SMILES string.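 Test compounds were applied to cells in 96-well plates for 48 hours at 5 doses. GI50 marks 50% less growth.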 Activity calls are given as the source filed them. Cut-off read from the data, not from the text of the source: active = GI50 up to about 1.1 µM and inactive = higher.

Among the test systems are A549; CCRF-CEM; DU-145; HCT-116; KM12; MDA-MB-435; NCI-H226; NCI-H460; NCI-H522; OVCAR-3; OVCAR-4; OVCAR-8; SF-268; SF-295; SK-MEL-2; SK-OV-3; SR; UO-31; BT-549; HOP-92.
Assay in all cases: NCI anticancer screen, dose series, 48 h

With `COc1cc(OC)c2c(c1OC)OCC(Cc1ccc(O)cc1)C2=O` (stereo not given), the GI50 in the experiment with A549, with CCRF-CEM, in the experiment on DU-145, with HCT-116, in the experiment with KM12 and with MDA-MB-435 was > 25 µM (inactive) each time. Besides, the GI50 with NCI-H226 was > 25 µM (inactive); in the experiment on NCI-H460, > 25 µM (inactive); with NCI-H522 it was > 25 µM (inactive); with OVCAR-3, 21 µM (inactive); with OVCAR-4, > 25 µM (inactive); in the experiment with OVCAR-8, > 25 µM (inactive). Also, the GI50 with SF-268, in the experiment on SF-295, in the experiment with SK-MEL-2, in the experiment on SK-OV-3, in the experiment on SR and in the experiment with UO-31 was > 25 µM (inactive) each time.

For the compound `O=C1c2ccccc2C(=O)N1CCc1nc(-c2ccccc2)c[nH]1`, the GI50 in the experiment on A549, in the experiment on BT-549, in the experiment on CCRF-CEM, in the experiment with DU-145, in the experiment on HCT-116 and with KM12 was > 100 µM (inactive) each time. Also, the GI50 in the experiment on NCI-H226, with NCI-H460, in the experiment on NCI-H522, in the experiment with OVCAR-3, with OVCAR-4 and in the experiment on OVCAR-8 was > 100 µM (inactive) throughout. For the same compound, the GI50 in the experiment with SF-268, with SF-295, in the experiment on SK-MEL-2, with SK-OV-3, in the experiment with SR and with UO-31 was > 100 µM (inactive) in each case.

For `N#CC(C#N)C(c1ccccc1)c1ccccc1`, the GI50 in the experiment with A549, in the experiment with CCRF-CEM, in the experiment with HCT-116, in the experiment on HOP-92, with KM12 and with NCI-H226 was > 100 µM (inactive) in each case. Further, the GI50 in the experiment with NCI-H460, in the experiment on NCI-H522, with OVCAR-3, in the experiment with OVCAR-4, with OVCAR-8 and in the experiment on SF-268 was > 100 µM (inactive) each time. For the same compound, the GI50 in the experiment on SF-295, with SK-MEL-2, in the experiment with SK-OV-3, in the experiment with SR and in the experiment on UO-31 was > 100 µM (inactive) each time.

For `CCOC(=O)c1c(NC(=O)c2ccccc2)c(C#N)c2n1CCCCC2`, the GI50 with A549, with CCRF-CEM, in the experiment on DU-145, with HCT-116, in the experiment with HOP-92 and with KM12 was > 100 µM (inactive) throughout. The GI50 in the experiment with MDA-MB-435, in the experiment on NCI-H226, with NCI-H460, in the experiment on NCI-H522, with OVCAR-4 and in the experiment on OVCAR-8 was > 100 µM (inactive) each time. For the same compound, the GI50 in the experiment with SF-268, in the experiment with SF-295, with SK-OV-3, in the experiment on SR and in the experiment on UO-31 was > 100 µM (inactive) each time.

Turning to `CCOC1=NC(C(F)(F)F)(C(F)(F)F)N=C(N2CCCCC2)O1`, the GI50 with A549, in the experiment with CCRF-CEM, in the experiment on DU-145, with HCT-116, in the experiment on HOP-92 and with KM12 was > 100 µM (inactive) throughout. Besides, the GI50 in the experiment on MDA-MB-435, in the experiment with NCI-H226, with NCI-H460, in the experiment with NCI-H522, with OVCAR-3 and with OVCAR-4 was > 100 µM (inactive) in each case. The GI50 was > 100 µM (inactive) with OVCAR-8; > 100 µM (inactive) in the experiment with SF-268; > 100 µM (inactive) in the experiment on SF-295; > 100 µM (inactive) in the experiment on SK-MEL-2; 59 µM (inactive) in the experiment with SR; > 100 µM (inactive) in the experiment on UO-31.

For the compound `O=C(Cc1ccccc1)NN1C(=O)C(Cl)C1c1ccccc1Cl` (stereo not given), the GI50 in the experiment with A549 was > 100 µM (inactive); in the experiment with CCRF-CEM, 14.1 µM (inactive); in the experiment on HCT-116, 59.4 µM (inactive); in the experiment on HOP-92 it was > 100 µM (inactive); with KM12, > 79.3 µM (inactive); with NCI-H226 it was > 100 µM (inactive). The GI50 in the experiment with NCI-H460 was 76 µM (inactive); in the experiment on NCI-H522, 13.2 µM (inactive); with OVCAR-3, > 62.7 µM (inactive); with OVCAR-4, > 100 µM (inactive); with OVCAR-8, > 74 µM (inactive); with SF-268 it was > 70.1 µM (inactive). Besides, the GI50 was 99.8 µM (inactive) in the experiment with SF-295; > 100 µM (inactive) with SK-MEL-2; > 100 µM (inactive) in the experiment with SK-OV-3; 23.2 µM (inactive) in the experiment on SR; > 100 µM (inactive) in the experiment on UO-31.

For the compound `Cc1ccc(CC(=O)Nc2ccc(NC(=O)/C=C/NC(=O)/C=C/c3ccc(-c4ccccc4)cc3)cc2C(=O)c2ccccc2)cc1`, the GI50 in the experiment on A549 was 1.77 µM (inactive); in the experiment with BT-549, 1.46 µM (inactive); with CCRF-CEM it was 2.16 µM (inactive); in the experiment on DU-145, 3.94 µM (inactive); in the experiment with HCT-116, 1.12 µM (active); in the experiment with KM12, 2.93 µM (inactive). Moreover, the GI50 was 3.27 µM (inactive) with MDA-MB-435; 2.42 µM (inactive) in the experiment on NCI-H226; 1.87 µM (inactive) in the experiment on NCI-H460; 1.88 µM (inactive) with OVCAR-3; 1.48 µM (inactive) in the experiment with OVCAR-4; 0.871 µM (active) in the experiment with OVCAR-8. Also, the GI50 in the experiment on SF-268 is 2.62 µM (inactive); in the experiment with SF-295, 1.36 µM (inactive); in the experiment on SK-MEL-2, 1.89 µM (inactive); in the experiment on SK-OV-3, 1.85 µM (inactive); in the experiment with UO-31, 3.67 µM (inactive).

In the case of `COc1ccc2c(c1)C=C(C(C)(C)C)NS2(=O)=O`, the GI50 in the experiment on A549, in the experiment on CCRF-CEM, in the experiment with HCT-116, with HOP-92, with KM12 and with NCI-H226 was > 100 µM (inactive) in each case. For the same compound, the GI50 in the experiment on NCI-H460, with NCI-H522, in the experiment with OVCAR-3, in the experiment on OVCAR-4, in the experiment with OVCAR-8 and in the experiment on SF-268 was > 100 µM (inactive) each time. Also, the GI50 in the experiment with SF-295, with SK-MEL-2, in the experiment on SK-OV-3, in the experiment on SR and in the experiment with UO-31 was > 100 µM (inactive) throughout.

As for `CCCn1c(SCC)c2cc3cc4ccccc4cc3cc2c1-c1nc(F)nc(F)n1`, the GI50 in the experiment on A549, with CCRF-CEM, in the experiment on HCT-116, in the experiment on HOP-92, in the experiment on KM12 and in the experiment on NCI-H226 was > 100 µM (inactive) in each case. The GI50 with NCI-H460, in the experiment on NCI-H522, in the experiment with OVCAR-3, in the experiment on OVCAR-4, with OVCAR-8 and with SF-268 was > 100 µM (inactive) in each case. In addition, the GI50 in the experiment on SF-295, with SK-MEL-2, in the experiment on SK-OV-3, in the experiment on SR and in the experiment on UO-31 was > 100 µM (inactive) throughout.

Consider `Cc1ccc(-c2nc(Cc3n[nH]c(-c4ccc(C)cc4)n3)n[nH]2)cc1`, for which the GI50 was > 100 µM (inactive) in the experiment on A549; > 100 µM (inactive) in the experiment with BT-549; > 100 µM (inactive) in the experiment with CCRF-CEM; > 100 µM (inactive) with DU-145; 36.1 µM (inactive) in the experiment on HCT-116; > 100 µM (inactive) with HOP-92. Further, the GI50 in the experiment with KM12 was > 100 µM (inactive); with MDA-MB-435, > 100 µM (inactive); in the experiment on NCI-H522, 2.99 µM (inactive); with OVCAR-3 it was > 100 µM (inactive); with OVCAR-4, 3.75 µM (inactive); in the experiment on OVCAR-8 it was 10.3 µM (inactive). Further, the GI50 in the experiment with SF-268 is 6.14 µM (inactive); with SF-295, > 100 µM (inactive); in the experiment on SK-MEL-2, > 100 µM (inactive); in the experiment on SK-OV-3, > 100 µM (inactive); with UO-31, > 100 µM (inactive).

On to `CC(=O)c1cccc(N2COC(C)(C)c3nc4ccccc4n3C2)c1`, for which the GI50 in the experiment on A549, in the experiment with CCRF-CEM, with HCT-116, in the experiment with HOP-92, in the experiment with KM12 and with NCI-H226 was > 100 µM (inactive) in each case. Moreover, the GI50 was > 100 µM (inactive) in the experiment with NCI-H460; > 100 µM (inactive) in the experiment on NCI-H522; > 100 µM (inactive) in the experiment with OVCAR-3; 14.3 µM (inactive) in the experiment on OVCAR-4; > 100 µM (inactive) in the experiment on OVCAR-8; > 100 µM (inactive) in the experiment on SF-268. Besides, the GI50 in the experiment with SF-295, in the experiment with SK-MEL-2, in the experiment with SK-OV-3, in the experiment with SR and in the experiment with UO-31 was > 100 µM (inactive) in each case.
